“Also recorded” adds a separate entry of the source.
Assays:
stimulated T cells = test: Oxygen Consumption Rate (Seahorse) of stimulated CD4 T cells; assay type: cell-based, mouse; conditions: CD4 cells stimulated on CD3/CD28; 1 μM CB839, 5 μM UK5099 injected separately or in combination
Procedure: Experiments were carried out on Agilent Seahorse XF96 bioanalyzer (Agilent). Briefly, wild type CD4+ cells were isolated as previous and activated for 3 days on CD3/CD28 as previously described, or skewed to Th1 and Th17 subsets as described above. T cells were spun onto XF96 Cell-Tak (BD Bioscience, Cat #: 354240) coated plates and rested in Seahorse XF RPMI 1640 media supplemented with glutamine, sodium pyruvate, and glucose. For immediate metabolic response, CB839 and UK5099 were injected separately or in combination, and OCR and ECAR measured.
Experiments were carried out on Agilent Seahorse XF96 bioanalyzer (Agilent). Briefly, wild type CD4+ cells were isolated as previous and activated for 3 days on αCD3/CD28 coated plates as previously described, or skewed to Th1 and Th17 subsets as described above. T cells were isolated and spun onto XF96 Cell-Tak (BD Bioscience, Cat #: 354240) coated plates and rested in Seahorse XF RPMI 1640 media supplemented with glutamine, sodium pyruvate, and glucose. For immediate metabolic response, 1 μM CB839 and 5 μM UK5099 (Cat #: PZ0160-5MG) were injected separately or in combination, and OCR and ECAR measured. For activation response, 1 uM CB839 was injected into IL-7 maintained naïve CD4+ T cells in seahorse medium and allowed to incubate for 20 minutes, followed by soluble αCD3/CD28 injection.

Th17 cells = test: ATAC-Seq chromatin accessibility, Th17; assay type: cell-based, mouse; conditions: Th17, 500 nM CB839, day 5
Procedure: ATAC-Seq: Crude nuclei pellets were isolated as described elsewhere (see, e.g., Buenrostro et al., 2013 Nat Meth. 10(12):1213-1218) with modifications. Briefly, naïve CD4 T cells were skewed to Th1 and Th17 subsets in vitro with vehicle or in the presence of 500 nM CB839. At Day 5, T cells were re-isolated for CD4+ cells using Miltenyi CD4+ negative selection kit (Cat #: 130-104-454). 1×10^5 cells were removed for nuclei extraction in ATAC-Seq lysing buffer. Cells were exposed to Tn5+ adaptor proteins from Nextera DNA for 30 min at 37° C. and immediately placed on ice. Transposed eluate was amplified via PCR using Nextera DNA preparation kit (Illumina, Cat #: FC-121-1030), NEBNext High-fidelity 2× PCR mix (New England Labs, Cat #: M0541), and multiplexed (Illumina, Cat #: FC-121-1011). Samples were purified using Zymo DNA cleanup kit (Cat #: D4011). QC of samples was run on bioanalyzer before being sent for sequencing. RNA-Seq: Th1 and Th17 cells skewed with or without CB839 were isolated as previously described and total RNA extracted (Qiagen RNEasy Mini kit, Cat #: 74104). RNA was sent to VANTAGE core at Vanderbilt University and sequenced on HiSeq 2500. n=3 for each sample was analyzed. Samples were analyzed using the R program DESeq2. GSEA was performed using MSigDB. […]

Structure (SMILES): O=C(Cc1cccc(OC(F)(F)F)c1)Nc1ccc(CCCCc2nnc(NC(=O)Cc3ccccn3)s2)nn1 [CB839]
- oxygen consumption (T cell respiration) (stimulated T cells): neither UK5099 nor CB839 were sufficient on their own to reduce T cell respiration; also recorded: neither UK5099 nor CB839 were sufficient to reduce T cell respiration alone
- genes with regions of altered chromatin accessibility (Th17 cells): more genes with regions of reduced accessibility
